Where a chain is given by its changes, count along the chain named.
Columns and labels:
[1] = molecular target: T1, GIRK1-S65Y with GIRK4 (Homo sapiens, UniProt P48544+P48549, S65Y); assay: 5-ptaseOCRL current inhibition, GIRK1/4 channels containing GIRK1-S65Y subunits; assay type: cell-based
T1 construct: expressed in transfected cells; host or cells: HEK293-T cells
T1 sequence (P48549 1-501 S65Y): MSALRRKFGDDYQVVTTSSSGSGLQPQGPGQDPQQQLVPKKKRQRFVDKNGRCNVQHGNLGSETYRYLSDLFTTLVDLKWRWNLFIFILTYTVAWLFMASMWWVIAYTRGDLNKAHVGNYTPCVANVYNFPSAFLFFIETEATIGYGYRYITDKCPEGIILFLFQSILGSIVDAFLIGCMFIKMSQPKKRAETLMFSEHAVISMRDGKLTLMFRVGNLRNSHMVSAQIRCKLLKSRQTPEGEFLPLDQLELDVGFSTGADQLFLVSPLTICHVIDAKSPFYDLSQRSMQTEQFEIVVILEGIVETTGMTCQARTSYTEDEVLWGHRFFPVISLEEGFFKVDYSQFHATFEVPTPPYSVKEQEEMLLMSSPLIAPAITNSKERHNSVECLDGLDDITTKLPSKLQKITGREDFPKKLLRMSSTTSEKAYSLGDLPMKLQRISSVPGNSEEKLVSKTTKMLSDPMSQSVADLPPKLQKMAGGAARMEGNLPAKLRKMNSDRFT
T1 sequence (P48544 1-419): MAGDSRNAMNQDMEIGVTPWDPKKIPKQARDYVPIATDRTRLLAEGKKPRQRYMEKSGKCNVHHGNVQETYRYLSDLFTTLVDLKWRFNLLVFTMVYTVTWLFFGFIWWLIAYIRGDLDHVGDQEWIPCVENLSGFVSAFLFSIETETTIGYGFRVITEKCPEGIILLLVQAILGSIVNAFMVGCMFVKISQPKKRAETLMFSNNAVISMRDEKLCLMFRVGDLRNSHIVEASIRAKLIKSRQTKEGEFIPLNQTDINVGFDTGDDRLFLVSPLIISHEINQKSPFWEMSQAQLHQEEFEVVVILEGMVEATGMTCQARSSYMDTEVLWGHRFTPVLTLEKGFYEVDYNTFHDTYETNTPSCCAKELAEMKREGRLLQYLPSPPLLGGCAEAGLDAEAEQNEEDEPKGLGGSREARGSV
From the text: (§1) To identify changes in specific channel residue interactions with PIP2 upon ligand binding, the inventors carried out Principal Component Analysis (PCA) in the presence and absence of ML297 and GAT1508. The PCA analysis implicated changes in the slide (or interfacial) helix interactions with PIP2 upon ligand binding. Polar interactions could be formed between GIRK2^FD(Y76) and GIRK4^FD(Y71) with the P(4,5) of PIP2 when ML297 was bound to the same subunit (FIG. 39 top, FIG. 40). In contrast, when GAT1508 was bound this interaction was retained by GIRK2^FD but not GIRK4^FD (FIG. 39 bottom, FIG. 40). The corresponding GIRK1(S65) residue (FIG. 41, highlighted with vertical rectangle) could be serving the same role in stabilizing the phosphoinositol headgroup for interactions with non-ligand binding subunits. As polar residues, both Ser and Tyr could form H-bond interactions with PIP2. […]
(§2) Patch-clamp recording: Whole-cell currents were recorded with an Axopatch 200B amplifier (Molecular Devices) controlled via a USB-interface (National Instruments) using WinWCP software (University of Strathclyde). […] The barium-sensitive component of the current, observed when cells were perfused with the high-K^+ buffer, was analyzed and was determined by perfusing 5 mM BaCl2 in the high-K^+ buffer at the end of each experiment. […]

[2] = molecular target: T2, GIRK1-S65A with GIRK4 (Homo sapiens, UniProt P48544+P48549, S65A); assay: 5-ptaseOCRL current inhibition, GIRK1/4 channels containing GIRK1-S65A subunits; assay type: cell-based
T2 construct: expressed in transfected cells; host or cells: HEK293-T cells
T2 sequence (P48549 1-501 S65A): T1 sequence (P48549 1-501 S65Y) with Y65A
T2 sequence (P48544 1-419): T1 sequence (P48544 1-419)
From the text: as §1, §2

| τ of current-inhibition (in words) [1] | protection of current from 5-ptaseOCRL (in words) [2] | SMILES |
| --- | --- | --- |
| not statistically increased | not protected | Cc1cc(NC(=O)Nc2ccc(Br)s2)n(-c2ccccc2)n1 [GAT1508, 1-(5-bromothiophen-2-yl)-3-(3-methyl-1-phenyl-1H-pyrazol-5-yl)urea] |
| not statistically increased | not protected | Cc1cc(NC(=O)Nc2ccc(F)c(F)c2)n(-c2ccccc2)n1 [ML297, reference compound] |

Source: patent publication US12351574B2, “Selective ligands for modulation of GIRK channels” (Northeastern University, priority 2018, dated 2025)
